Experimental data as given in a melting point compilation (Tetko et al.; mined from patent text by program, amines drawn as free bases though some values may be those of a salt).

SMILES | melting point
N#Cc1cn(CCl)cc1-c1cccc(Cl)c1Cl | 132 to 133 °C
CC(C)(C)c1ccc(Cn2c(-c3ccc4c(c3)OCO4)nc3ccccc32)cc1 | 142 to 144 °C
O=C1c2ccc(Sc3ccc(Cl)cc3)cc2C(=O)N1Cc1cccnc1 | 115 to 118 °C
S=c1[nH]nc(Cc2ccccc2Nc2c(Cl)cccc2Cl)o1 | 168 to 170 °C
O=C(CCO)Cc1cccc(OCc2ccc3ccccc3n2)c1 | 116 to 119 °C
CN(c1ccc(OC2CCCC2)cc1)S(C)(=O)=O | 120 to 122 °C
O=C(NC1CCCCC1)OC1CCN(C(=O)Oc2ccc(Oc3ccccc3)cc2)CC1 | 137 to 139 °C
Cc1c(Nc2c(C#N)cnc3sc(-c4ccc(OCCN(C)C)cc4)cc23)ccc2[nH]ccc12 | 182 to 184 °C
CC1(C)CC(S(=O)(=O)Cc2c(C(F)(F)F)nn3c2OCCC3)=NO1 | 151 to 152 °C
CCOC(=O)C1=C(C)N(C(=O)c2ccccc2)C(C)=C(C(=O)OCC)C1c1cccc([N+](=O)[O-])c1 | 98 to 101 °C
Cc1cc(-c2cc(C(F)(F)F)n3cnc(-c4cccnc4)c3n2)ccc1Cl | 210 °C
Cc1ccc(Oc2ccc(-n3cc(C(=O)O)cn3)cc2)c(O)c1 | 231 to 233 °C
CC(C)(C#N)c1cc(C=O)cc(C(C)(C)C#N)c1 | 145 to 147 °C
Cc1cccc(C(=O)NC(C)C)c1N | 149 to 151 °C
Cn1nccc1CCS(=O)Cc1ccc(OCc2coc(/C=C/c3ccc(OC(F)(F)F)cc3)n2)cc1 (stereo unspecified) | 138 to 139 °C
CCN(CC)C(=O)n1ccc(S(=O)(=O)c2ccc(Cl)cc2Cl)n1 | 85 to 86 °C
COc1ccccc1-c1ccc2c(c1)CC[C@H]1N(C)C(=O)CC[C@]21C | 152 to 156 °C
CCOC(=O)c1cn(C2CC2)c2nc3cc(N4CCNC(c5ccc(OC)cc5)C4)c(F)cc3cc2c1=O (racemic) | 199 °C
O=C(Nc1cc(C(F)(F)F)ccc1N1CCCCC1)c1ccncc1 | 96 to 98 °C
Cc1cc2n(c1C(=O)c1cccs1)CCC2C(=O)OC(C)C (stereo unspecified) | 102 °C
COC1C=C(C)C(=O)CC(C)(C)C1OC(=O)Cc1csc(N)n1 (stereo unspecified) | 116 to 117 °C
CC(C)(C)NC(=O)[C@@H]1C[C@H](Cl)CN1C(=O)[C@@H](O)[C@H](Cc1ccccc1)NC(=O)[C@H](CC(N)=O)NC(=O)c1cc2cc(F)ccc2[nH]1 | 141 to 143 °C
Cc1nc(N2CCc3ccccc3CC2)c(C#N)c(=O)n1N | 137 to 142 °C
O=C(O)CCn1nnnc1-c1ccc2c(c1)S(=O)(=O)c1ccccc1C2=O | 143 to 145 °C
COc1ccc(-c2cc(-c3ccc(-c4c(Cc5ccccc5)sc5ccccc45)cc3)ccc2OCC(=O)O)cc1OC | 95 to 97 °C
Oc1ccc(Oc2cccc(-c3nnc(Nc4ccc(Cl)c(Cl)c4)s3)c2)cc1 | 224 to 226 °C

SMILES | melting point
O=C1NCC(Cc2ccccc2Br)O1 (stereo unspecified) | 130 to 131 °C
CCOc1cc(=O)[nH]c2ccccc12 | 223 to 226 °C
CC(C)c1ccc(N(Cc2ccc(N(C)C)cc2)C(=O)C2CCCc3ccc(O)cc32)cc1 (stereo unspecified) | 214 to 217 °C
Cc1ccc(NS(=O)(=O)c2ccc(N3CCNC3=O)cc2)cc1C | 206 to 208 °C
CCc1[nH]nc2c1C(=O)c1c(NC(=O)NN3CCN(C)CC3)cccc1-2 | 244 to 246 °C
FC(F)(F)c1cc(Cl)c(-c2nc(C(F)(F)F)c[nH]2)c(Cl)c1 | 213 to 215 °C
CCCCS(=O)(=O)Nc1ccccc1Oc1ccc2ncccc2c1 | 131 to 133 °C
COc1cc(N(C(C)=O)c2c(C#N)cnc3ccsc23)c(Cl)cc1Cl | 202 to 204 °C
CN(C)CCNC(=O)N1CCN(c2ccc(Br)cc2)CC1 | 133 to 135 °C
CC(c1ccc(Cl)cc1)N1CCNC1=NC(N)=S (stereo unspecified) | 107 °C
C=CCC(C)(C)C(NC(=O)c1ccc(Cl)cc1)Nc1c(Nc2cccnc2)c(=O)c1=O (stereo unspecified) | 242 to 243 °C
CCOC(=O)c1cn(C2CC2)c2nc3cc(F)c(F)cc3cc2c1=O | 230 °C
Cn1ccnc1S(=O)(=O)c1ccccc1Cl | 156 to 159 °C
Cc1ccc2c(c1)c1c(n2CCBr)C(=O)CCC1 | 102 to 103 °C
Nc1nc(-n2cc(C(=O)O)c(=O)c3cc(F)c(F)c(Cl)c32)ncc1F | 242 to 246 °C
CCCCCCCCCCOc1ccc2c(=O)c3cc(C(=O)O)ccc3oc2c1CCC(=O)O | > 210 °C
CCCCCCCCCCCCCCCCOCC(CO)Oc1ccon1 (stereo unspecified) | 50 to 51 °C
CCCCCc1nc(C(=O)OCC)c(C)[nH]1 | 89 to 90 °C
O=[N+]([O-])c1ccc(C=C2c3ccccc3C=Cc3ccccc32)cc1 | 152 °C
CC(=O)Nc1ccc(C(O)CO)cn1 (stereo unspecified) | 184 to 185 °C
C#CC(C)N1CCNC1=O (stereo unspecified) | 90 to 92 °C
CN1CCC(Oc2ccc(Br)cc2C(N)=O)C1 (stereo unspecified) | 160 to 162 °C
COC(=O)c1cc(OC)cc(-c2cccc([N+](=O)[O-])c2)n1 | 150 to 152 °C
O=C1c2ccccc2C(=O)N1CC(=CBr)c1ccccc1 | 128 to 129 °C
O=C(c1ccc(-c2ccc(CBr)cc2)cc1)c1ccc(Cl)cc1Cl | 92 °C
